How the values were obtained:
[1] = test system: DU4475; assay: In vitro cell viability assay (CellTiter-Glo, ATP levels), triple negative breast cancer cells; assay type: cell-based; settings: Homo sapiens, DU-4475, 168 h, 7-day incubation, CellTiter-Glo, average values; read-out: DU4475 IC50
Protocol: (§1) In Vitro Cell Viability Assay
(§2) The present disclosure provides a method for inhibiting cell viability, as measured by ATP levels. The method for inhibiting cell viability is drawn to contacting various cancer cells with the compounds described herein at various concentrations. The cancer cell lines were maintained in culture conditions at 37° C. in an atmosphere of 5% CO2 in air. The cells growing in an exponential growth phase were harvested and counted for plating. Compounds were incubated in two cancer cell types representing multiple myeloma (MOLP-8) and triple negative breast cancer (DU4475). Cells were plated at an optimized cell numbers per well in 96-well plates and allowed to attach to the plates overnight at approximately 80% confluency.
(§3) After addition of compounds, plates were incubated for 7-day. At the end of incubation period on day 8, media was removed and replaced with a solution of CellTiter-Glo™ reagent (Promega®) according to protocol. Luminescence was read using an EnVision® multi-label plate reader (Perkin-Elmer®), and signal intensity was calculated relative to positive and negative control wells. Cisplatin was included as the positive control. A dose-response calculation was performed in a non-linear regression fit and by using the Hill equation to calculate a concentration-response curve and 50% inhibitory concentration (IC50) values for each compound.
(§4) The average IC50 values of compounds 1-15 in multiple myeloma (MOLP-8) and triple negative breast cancer (DU4475) cells are shown in Table 1.

[2] = test system: MOLP-8; assay: In vitro cell viability assay (CellTiter-Glo, ATP levels), multiple myeloma cells; assay type: cell-based; settings: Homo sapiens, MOLP-8, 168 h, 7-day incubation, CellTiter-Glo, average values; read-out: MOLP-8 IC50
Protocol: as §1, §2, §3, §4

[3] = test system: HCT116 (colorectal cancer) cells; assay: Resazurin-based cell viability assay using colorectal cancer cells; settings: Homo sapiens, HCT-116, 72 hr incubation
Protocol: Determination of Potency of Compounds in Cell Viability Assay Using Colorectal Cancer Cells
The blue dye resazurin-based assay was performed to determine cell viability and used according to manufacture protocol (Sigma®). HCT116 (colorectal cancer) cells were seeded in the DMEM medium (10% FBS serum). Approximately 1,500 cells were plated per well in 96 well plates. Cells were allowed to grow at 37° C. for 24 hr in 5% CO2 environment in a humidified incubator. Serially diluted compounds (100 μL) were added to the culture plate after 24 hr. After addition of compounds, plates were incubated for 72 hr. Experiment was terminated at the designated incubation time by replacing the medium with 100 μL of 1 mM of resazurin (Sigma®) prepared in culture medium (DMEM) and were further incubated in culture conditions for 4-6 hours. Fluorescence was recorded using a multimodal plate reader (Biotek Synergy Neo®) at an excitation wavelength of 535 nm and emission wavelength of 590 nm to obtain relative fluorescence units. Data analysis was done by subtracting the background fluorescence (medium blank) value from each reading and then normalizing with the vehicle control (DMSO treated cells) to obtain percent survival/proliferation. IC50 was calculated from percent survival values using GraphPad Prism® (see Table 1).

Structure (SMILES) | IC50 [1] | IC50 [2] | IC50 [3]
COc1cc(/C=C/C(=O)N2CC(C)(C)C=CC2=O)cc2c1OCCO2 [Compound 30, (E)-1-(3-(8-methoxy-2,3-dihydrobenzo[b][1,4]dioxin-6-yl)acryloyl)-5,5-dimethyl-5,6-dihydropyridin-2(1H)-one] | 5500 nM | 2800 nM | 9.9 µM
O=C1C=CCCCN1C(=O)/C=C/c1ccc2c(n1)OCCO2 [Compound 31, (E)-1-(3-(2,3-dihydro-[1,4]dioxino[2,3-b]pyridin-6-yl)acryloyl)-1,5,6,7-tetrahydroazepin-2-one] | 560 nM | 270 nM | 1.55 µM
O=C1C=CC(O)CN1C(=O)/C=C/c1ncccn1 (stereo not drawn) [Compound 32, 5-hydroxy-1-[(2E)-3-(pyrimidin-2-yl)prop-2-enoyl]-5,6-dihydropyridin-2(1H)-one] | 1490 nM | 380 nM | 7.2 µM
CC1(C)C=CC(=O)N(C(=O)/C=C/c2ncccn2)C1 [Compound 33, (E)-5,5-dimethyl-1-(3-(pyrimidin-2-yl)acryloyl)-5,6-dihydropyridin-2(1H)-one] | 1300 nM | 560 nM | 4.07 µM
O=C(/C=C/c1ncccn1)N1CCC=C(Cl)C1=O [Compound 35, (E)-3-chloro-1-(3-(pyrimidin-2-yl)acryloyl)-5,6-dihydropyridin-2(1H)-one] | 210 nM | 80 nM | 0.38 µM
O=C1C=CC(F)CN1C(=O)/C=C/c1ncccn1 (stereo not drawn) [Compound 37, (E)-5-fluoro-1-(3-(pyrimidin-2-yl)acryloyl)-5,6-dihydropyridin-2(1H)-one] | 420 nM | 110 nM | 0.87 µM
O=C(/C=C/c1ncccn1)N1CCC=C(Br)C1=O [Compound 40, 3-bromo-1-[(2E)-3-(pyrimidin-2-yl)prop-2-enoyl]-5,6-dihydropyridin-2(1H)-one] | 100 nM | 40 nM | 0.36 µM
CC1C=CC(=O)N(C(=O)/C=C/c2ncccn2)C1 (stereo not drawn) [Compound 43, (E)-5-methyl-1-(3-(pyrimidin-2-yl)acryloyl)-5,6-dihydropyridin-2(1H)-one] | 530 nM | 280 nM | 1.27 µM
Cn1ccc(/C=C/C(=O)N2CCC=CC2=O)n1 [Compound 53, 1-[(2E)-3-(1-methyl-1H-pyrazol-3-yl)prop-2-enoyl]-5,6-dihydropyridin-2(1H)-one] | 730 nM | 560 nM | 2.12 µM
COc1cc(/C=C(\C)C(=O)N2CCC=CC2=O)cc2c1OCCO2 [Compound 55, 1-[(2E)-3-(8-methoxy-2,3-dihydro-1,4-benzodioxin-6-yl)-2-methylprop-2-enoyl]-5,6-dihydropyridin-2(1H)-one] | 830 nM | 580 nM | 1.96 µM
Cn1cc(/C=C/C(=O)N2CCC=CC2=O)cn1 [Compound 56, (E)-1-(3-(1-methyl-1H-pyrazol-4-yl)acryloyl)-5,6-dihydropyridin-2(1H)-one] | 1380 nM | 600 nM | 3.6 µM
COc1cnc(/C=C/C(=O)N2CCC=CC2=O)nc1 [Compound 63, (E)-1-(3-(5-methoxypyrimidin-2-yl)acryloyl)-5,6-dihydropyridin-2(1H)-one] | 480 nM | 290 nM | 2.11 µM
O=C1C=CCCN1S(=O)(=O)/C=C/c1ncccn1 [Compound 66, 1-{[(E)-2-(pyrimidin-2-yl)ethenyl]sulfonyl}-5,6-dihydropyridin-2(1H)-one] | 950 nM | 210 nM | 3.11 µM
C/C(=C\c1cnn(C)c1)C(=O)N1CCC=CC1=O [Compound 69, 1-[(2E)-2-methyl-3-(1-methyl-1H-pyrazol-4-yl)prop-2-enoyl]-5,6-dihydropyridin-2(1H)-one] | 4010 nM | 1980 nM | 14 µM
C/C(=C/C1CCN(C(=O)OC(C)(C)C)CC1)C(=O)N1CCC=CC1=O [Compound 71, (Z)-tert-butyl 4-(2-methyl-3-oxo-3-(2-oxo-5,6-dihydropyridin-1(2H)-yl)prop-1-enyl)piperidine-1-carboxylate] | 4670 nM | 3910 nM | 13.6 µM
C/C(=C\C1CCN(C(=O)OC(C)(C)C)CC1)C(=O)N1CCC=CC1=O [Compound 72, tert-butyl (E)-4-(2-methyl-3-oxo-3-(6-oxo-3,6-dihydropyridin-1(2H)-yl)prop-1-en-1-yl)piperidine-1-carboxylate] | 4430 nM | 2670 nM | 10.3 µM
Cn1cc(/C=C/S(=O)(=O)N2CCC=CC2=O)cn1 [Compound 75, 1-{[(E)-2-(1-methyl-1H-pyrazol-4-yl)ethenyl]sulfonyl}-5,6-dihydropyridin-2(1H)-one] | 1600 nM | 860 nM | 4.62 µM

Further lines, results first:

IC50 [1] | IC50 [2] | IC50 [3] | Structure (SMILES)
1430 nM | 510 nM | 3.8 µM | O=C1C=CCCN1C(=O)/C=C/C1CCOCC1 [Compound 34, 1-[(2E)-3-(tetrahydro-2H-pyran-4-yl)prop-2-enoyl]-5,6-dihydropyridin-2(1H)-one]
1030 nM | 230 nM | 0.92 µM | O=C1C=CCCCN1C(=O)/C=C/C1CCNCC1 [Compound 38, (E)-1-(3-(piperidin-4-yl)acryloyl)-6,7-dihydro-1H-azepin-2(5H)-one]
1050 nM | 490 nM | 1.35 µM | O=C1C=CCCN1C(=O)/C=C/C1CCN(CC2CC2)CC1 [Compound 44, (E)-1-(3-(1-(cyclopropylmethyl)piperidin-4-yl)acryloyl)-5,6-dihydropyridin-2(1H)-one]
1350 nM | 720 nM | 3.24 µM | O=C1C=CCCN1C(=O)/C=C/C1CCN(C2COC2)CC1 [Compound 45, (E)-1-(3-(1-(oxetan-3-yl)piperidin-4-yl)acryloyl)-5,6-dihydropyridin-2(1H)-one]
530 nM | 680 nM | 1.36 µM | O=C1C=CCCN1C(=O)/C=C/C1CCN(S(=O)(=O)c2ccccc2)CC1 [Compound 57, (E)-1-(3-(1-(phenylsulfonyl)piperidin-4-yl)acryloyl)-5,6-dihydropyridin-2(1H)-one]
440 nM | 380 nM | 1.1 µM | O=C(Nc1ccc(F)cc1)N1CCC(/C=C/C(=O)N2CCC=CC2=O)CC1 [Compound 58, N-(4-fluorophenyl)-4-[(1E)-3-oxo-3-(6-oxo-3,6-dihydropyridin-1(2H)-yl)prop-1-en-1-yl]piperidine-1-carboxamide]
580 nM | 310 nM | 1.73 µM | CC(C)(C)CN1CCC(/C=C/C(=O)N2CCC=CC2=O)CC1 [Compound 62, (E)-1-(3-(1-neopentylpiperidin-4-yl)acryloyl)-5,6-dihydropyridin-2(1H)-one]
960 nM | 760 nM | 3.4 µM | O=C1C=CCCN1C(=O)/C=C/C1CCN(c2ncccn2)CC1 [Compound 67, 1-{(2E)-3-[1-(pyrimidin-2-yl)piperidin-4-yl]prop-2-enoyl}-5,6-dihydropyridin-2(1H)-one]
1550 nM | 670 nM | 7.38 µM | NC(=O)N1CCC(/C=C/C(=O)N2CCC=CC2=O)CC1 [Compound 68, (E)-4-(3-oxo-3-(6-oxo-3,6-dihydropyridin-1(2H)-yl)prop-1-en-1-yl)piperidine-1-carboxamide]
1750 nM | 1350 nM | 7.06 µM | CC1(C)C=CC(=O)N(C(=O)/C=C/C2CCN(C(=O)Nc3ccc(F)cc3)CC2)C1 [Compound 70, (E)-4-(3-(3,3-dimethyl-6-oxo-3,6-dihydropyridin-1(2H)-yl)-3-oxoprop-1-en-1-yl)-N-(4-fluorophenyl)piperidine-1-carboxamide]
1620 nM | 950 nM | 4.28 µM | C/C(=C\C1CCN(C(=O)Nc2ccc(F)cc2)CC1)C(=O)N1CCC=CC1=O [Compound 73, (E)-N-(4-fluorophenyl)-4-(2-methyl-3-oxo-3-(6-oxo-3,6-dihydropyridin-1(2H)-yl)prop-1-en-1-yl)piperidine-1-carboxamide]
1000 nM | 660 nM | 2.58 µM | O=C1C=CCCN1C(=O)/C=C/C1CCN(c2ccccn2)CC1 [Compound 74, (E)-1-(3-(1-(pyridin-2-yl)piperidin-4-yl)acryloyl)-5,6-dihydropyridin-2(1H)-one]

— patent US11485725B2, “Derivatives of piperlongumine and uses thereof” (Auransa Inc., priority 2017, dated 2022)
